Reference: patent US12484583B2 (priority 2019, dated 2025)

Columns and labels:
Fusarium culmorum = conditions: in vivo
Rhizoctonia = conditions: in vivo

| Compound | fungicidal activity of the insecticide by itself (Fusarium culmorum) | stimulation of the fungicidal action of natamycin (Fusarium culmorum) | fungicidal activity of the insecticide by itself (Rhizoctonia) | stimulation of the fungicidal action of natamycin (Rhizoctonia) |
| --- | --- | --- | --- | --- |
| O=[N+]([O-])NC1=NCCN1Cc1ccc(Cl)nc1 [Imidacloprid, N-[1-[(6-chloropyridin-3-yl)methyl]-4,5-dihydroimidazol-2-yl]nitramide] | does not have fungicidal activity by itself | stimulates the fungicidal action of natamycin on seeds of different plants | – | – |
| abamectin | – | – | does not have fungicidal by itself | stimulates the fungicidal action of natamycin against different fungal pathogens on seeds |
